The source of these data is patent US20150185241A1, “Tilidine Immunodetection” (Randox Laboratories Limited, priority 2013, published 2015).

Counter-ions that a name gives are not always drawn.

In assay [1] the test system is tilidine-specific antibody raised from Immunogen-II. The assay is described as follows: Competitive ELISA (Example 8): different Ig fraction of antiserum raised to Immunogen II, hapten-HRP conjugate of Example 6 as detecting agent. As to conditions: for % cross-reactivity: relative to tilidine HCl = 100; for % cross-reactivity / IC50: different Ig fraction (Example 8); for IC50: standard concentration which produces 50% B/Bo. In kind it is binding. As to the method: The wells of an enhanced binding 96 well polystyrene microtitre plate were coated with a different Ig fraction (to that exemplified in Example 7) of the antiserum raised to Immunogen II (N-(carboxypropyl)nortilidine-BTG—example 5), diluted in 10 mMTris, pH 8.5 (125 μl/well). The appropriate antibody coating dilution was determined using standard ELISA checkerboard techniques. The plate was incubated for 2 hours at 37° C., washed 4 times over 10 minutes with Tris buffered saline, containing Tween 20 (TBST) and tapped dry. Standard solutions of tilidine hydrochloride (a mixture of the two trans isomers—the 1R, 2S and the 1S, 2R trans isomers) and bisnortilidine hydrochloride (a mixture of the two trans isomers—the 1R, 2S and the 1S, 2R trans isomers) were prepared in TBST at 0, 0.313 ng/ml, 0.625 ng/ml, 1.25 ng/ml, 2.5 ng/ml, 5 ng/ml, 10 ng/ml and 20 ng/ml and 50 μl of each was added to the appropriate wells. 75 μl of conjugate of example 6 (hapten-HRP), diluted in Tris buffer (pH7.2) containing EDTA, D-mannitol, sucrose, thimerosal and BSA was added to each of the wells. The appropriate dilution of conjugate was also determined using standard ELISA checkerboard techniques. The plate was incubated at 25° C. for 1 hour. Excess unbound conjugate was removed by washing 6 times over a 10-15 minute period with TBST. 125 μl of tetramethylbenzidine (TMB) substrate solution was added to each well of the plate that was then incubated for 20 minutes in the dark at room temperature. The reaction was terminated by the addition of 125 μl of 0.2M H2SO4 to each well. The absorbance was then measured at 450 nm using a microtitre plate reader.
Background: An ELISA detects its analyte on a solid surface through an enzyme-linked reagent.

For assay [2] the test system is unchanged. The assay is described as follows: Competitive ELISA (Example 7): Ig fraction of antiserum raised to Immunogen II, hapten-HRP conjugate of Example 6 as detecting agent. Type of assay: binding. How it is done:
The wells of an enhanced binding 96 well polystyrene microtitre plate were coated with the Ig fraction of the antiserum raised to Immunogen II (N-(carboxypropyl)nortilidine-BTG—example 5), diluted in 10 mMTris, pH 8.5 (125 μl/well). The appropriate antibody coating dilution was determined using standard ELISA checkerboard techniques. The plate was incubated for 2 hours at 37° C., washed 4 times over 10 minutes with Tris buffered saline, containing Tween 20 (TBST) and tapped dry. Standard solutions of tilidine hydrochloride (a mixture of the two trans isomers—the 1R, 2S and the 1S, 2R trans isomers) and nortilidine hydrochloride (a mixture of the two trans isomers—the 1R, 2S and the 1S, 2R trans isomers) were prepared in TBST at 0, 0.625 ng/ml, 1.25 ng/ml, 2.5 ng/ml, 5 ng/ml, 10 ng/ml, 20 ng/ml and 40 ng/ml and 50 μl of each was added to the appropriate wells. 75 μl of conjugate of example 6 (hapten-HRP), diluted in Tris buffer (pH7.2) containing EDTA, D-mannitol, sucrose, thimerosal and BSA was added to each of the wells. The appropriate dilution of conjugate was also determined using standard ELISA checkerboard techniques. The plate was incubated at 25° C. for 1 hour. Excess unbound conjugate was removed by washing 6 times over a 10-15 minute period with TBST. 125 μl of tetramethylbenzidine (TMB) substrate solution was added to each well of the plate that was then incubated for 20 minutes in the dark at room temperature. The reaction was terminated by the addition of 125 μl of 0.2M H2SO4 to each well. The absorbance was then measured at 450 nm using a microtitre plate reader.

For `CCOC(=O)[C@]1(c2ccccc2)CCC=C[C@H]1N(C)C` (racemic) [Tilidine HCl, (±)-trans-ethyl 2-(N,N-dimethylamino)-1-phenylcyclohex-3-enylcarboxylate], the “% cross-reactivity” value in assay [1] is reported as 100%; in assay [2] (relative to tilidine HCl = 100, Ig fraction of Example 7), 100%. In addition, the “% B/Bo” value in assay [1] (standard 0.313 ng/ml) is reported as 70%; in assay [1] (standard 0.625 ng/ml), 63%; in assay [1] (standard 1.250 ng/ml), 52%; in assay [1] (standard 2.500 ng/ml) it was 41%; in assay [1] (standard 5.000 ng/ml) it was 31%; in assay [1] (standard 10.000 ng/ml), 21%. For the same compound, the “% B/Bo” value is on record as 14% in assay [1] (standard 20.000 ng/ml); 63% in assay [2] (standard 0.625 ng/ml); 55% in assay [2] (standard 1.250 ng/ml); 46% in assay [2] (standard 2.500 ng/ml); 37% in assay [2] (standard 5.000 ng/ml); 28% in assay [2] (standard 10.000 ng/ml). For the same compound, the “% B/Bo” value turned out to be 20% in assay [2] (standard 20.000 ng/ml) and 14% in assay [2] (standard 40.000 ng/ml). For the same compound, the IC50 (as a rule, the concentration that inhibits the measured activity by half) came out at 1.473 ng/mL in assay [1] and 1.820 ng/mL in assay [2] (standard concentration which produces 50% B/Bo, Ig fraction of Example 7).
“(±)-trans-ethyl 2-amino-1-phenylcyclohex-3-enylcarboxylate [Bisnortilidine HCl]”: in assay [1], the “% cross-reactivity” value was 14.73%. The “% B/Bo” value came to 86% in assay [1] (standard 0.313 ng/ml); 82% in assay [1] (standard 0.625 ng/ml); 76% in assay [1] (standard 1.250 ng/ml); 68% in assay [1] (standard 2.500 ng/ml); 59% in assay [1] (standard 5.000 ng/ml); 50% in assay [1] (standard 10.000 ng/ml). Further, in assay [1] (standard 20.000 ng/ml), the “% B/Bo” value is on record as 39%. Also, the IC50 in assay [1] is 10.0 ng/mL.
